In US7282602B2, “Medicinal disulfide salts” (BioNumerik Pharmaceuticals, Inc., priority 2004, dated 2007):

Assay: toxicity in vivo (lethality)
Protocol: The formula I compounds may be administered in any convenient dosage form, with the preferred formulations adapted for oral (PO) or intravenous (IV) administration. Since the water solubility of the compounds exceeds 200 mg/mL, formulations are not anticipated to be difficult to make.

O=S(=O)([O-])CCSSCCS(=O)(=O)[O-].[Na+].[Na+] [Dimesna, Disodium 2,2′-dithiobis ethane sulfonate]
toxicity compared with common table salt: less toxic than common table salt
amount not causing a single death in vivo (IV): exceeding 5000 mg/kg
